According to US9274101B2 (BIOLOG, Inc., priority 2001, dated 2016):
Where two headings read alike, the source gives them in different places. Where a SMILES comes first, the peptide text is derived from it.

What was measured:
[1] = system: Salmonella typhimurium auxotrophs hisF645 and pyrCΔ73; format: cell-based
ten strains of E. coli = format: cell-based, Escherichia coli; also: key: +: indicates that the organism tested was capable of utilizing the carbon source listed; −: indicates that the organism tested was not capable of utilizing the carbon source listed; indicates weak positive reactions
E. coli MG1655 [2] = format: cell-based, Escherichia coli
HepG2 cells = HepG2 cells cultured on CYTODEX 3 microcarriers, energy sources; format: cell-based, human; details: Homo sapiens, HepG2, 68 h, read-out: Responses of HepG2 Cells Cultured on Microcarriers After 68 hours in Culture and a 4 hour Color Development Period
Experimental: In this Example, methods for testing adherent cells cultured in suspension, for their ability to use multiple carbon sources are described. HepG2 cells were cultured as described in Example 30.
HepG2 cells were harvested by trypsinization for 3 minutes in 0.25% trypsin-1 mM EDTA and resuspended in an equal volume of culture medium. A viable cell count was obtained by trypan blue exclusion and the appropriate volume of the cell suspension to have 2.7×10^6 cells/0.1 gm CYTODEX 3 (Sigma C3275) microcarrier beads was determined. Microcarrier beads had been previously prepared by 1) rehydration in calcium-magnesium free (CMF) DPBS for 3 hours, 2) autoclaving for 15 minutes, and 3) washing twice in MEM without serum. The cell suspension was added to the beads in a 50 mL tube, and the volume adjusted to 5 mL. Cells were allowed to attach for 1 hour in an atmosphere of 5% CO2, 90-100% humidity, and 37° C., with resuspension every 15 minutes. The microcarriers were transferred to a 100×15 mm Petri dish in a total volume of 20 mL. Cultures were maintained as stationary cultures until used for assay.
The thixotropic suspending agent, methylcellulose (1500 cps, Sigma M0555), was included in the medium to keep the microcarriers suspended so that they could be accurately pipetted. The methylcellulose was prepared by autoclaving in 20 mL tissue culture water for 30 minutes, then mixing by shaking for 1 hour. The initial concentration of methylcellulose was […]. The methylcellulose was then diluted 1:1 in 2× DME with or without glucose, then supplemented with 10% HI FBS; this yields a methylcellulose concentration of 1.36%. Beads were transferred to a 50 mL tube, allowed to settle and resuspended in DPBS. The washed beads were then resuspended in DME with 10% HI FBS and penicillin-streptomycin but without glucose, L-glutamine, sodium pyruvate, or phenol red. An equal volume of 1.36% methylcellulose was added and mixed by pipetting.
For the assay, 70 μL of DME with 10% HI FBS and penicillin-streptomycin but without glucose, L-glutamine, sodium pyruvate, or phenol red were added to each well, followed by 30 μL of the appropriate dilution of each test energy source. Stocks of 133 mM of each test chemical were prepared in tissue culture grade water, sterile filtered, and dilutions were prepared in a master plate so that, upon dilution into a regular 96-well MICROPLATE a total well volume of 200 μL, the final concentrations would be 0.033 to 20 mM. Negative control wells received 30 μL of tissue culture grade water. One hundred μL of beads were pipetted into each well. For each plate containing energy sources and cells, a second, control plate containing only energy sources was prepared. Plates were incubated at 5% CO2, 90-100% humidity, and 37° C. for 68 hours prior to addition of the MTS/MPMS colorometric reagent (10 μL/well). The color formed in each well 4-8 hours after addition of the colorimetric reagent, was measured with a plate reader at 490 nm with a reference wavelength of 650 nm. OD values from the control plate were subtracted from the OD values obtained with cells prior to normalizing the data to % negative control (cells without added energy source).

E. coli MG1655 [3] = format: cell-based, Escherichia coli; remark: listed apart in the source
HL-60 cells = assay: HL-60 responses in PM1a, PM6, PM7 and PM8 plates; format: cell-based, human; details: PM6, PM7, PM8; positive = greater than 130% of the negative control
Experimental: In this Example, methods for testing unattached cells for their ability to use various carbon sources including di and tri-peptides are described.
After washing, HL-60 cells were resuspended in DME-R. An aliquot of the cell suspension was counted by trypan blue exclusion and the cell density was adjusted to 1×10^6/mL. Fifty μL of DME-R were added to each well of the appropriate number of half area, 96-well plates. The cells were plated at a volume of 50 μL/well, giving a final cell density of 5×10^4/well. PM1a, MP6, PM7, and PM8 MICROPLATE testing plates were inoculated (these MICROPLATE testing plates are available from Biolog under license). For each plate containing chemicals and cells, a second, control plate containing only chemicals was prepared. All wells contained a total volume of 100 μL. Plates were incubated at 5% CO2, 90-100% humidity, and 37° C. for 1 hour prior to addition of the MTS/MPMS colorometric reagent (5 μL/well). The color formed in each well after an additional 24 hour incubation period, was measured on a plate reader at 490 nm with a reference wavelength of 650 nm. OD values from the control plate were subtracted from the OD values obtained with cells prior to normalizing the data to % negative control (cells without added energy source).

E. coli (MG1655) = assay: Sensitivity in ES1, ES2, ES3 MICROPLATE panels in the presence of vancomycin or sulfamethoxazole (synergy/antagonism); format: cell-based, Escherichia coli
[4] = in the presence of 235 μg/ml sulfamethoxazole

SMILES	growth stimulation (well color) [1]	suitability as phosphorus source (growth, purple color) (E. coli MG1655 [3])	also measured
Nc1ccn([C@H]2C[C@H](O)[C@@H](CO)O2)c(=O)n1 [2-deoxycytidine]	turned purple		
O=c1ccn([C@H]2C[C@H](O)[C@@H](CO)O2)c(=O)[nH]1 [2-deoxyuridine]	turned purple		
Nc1ncnc2c1ncn2[C@H]1C[C@H](O)[C@@H](CO)O1 [2′-deoxy-adenosine]	turned weakly purple		carbon source utilization (ten strains of E. coli): +
Nc1nc2c(ncn2[C@H]2C[C@H](O)[C@@H](CO)O2)c(=O)[nH]1 [2′deoxyguanosine]	turned weakly purple		
O=c1ccn([C@@H]2O[C@H](CO)[C@@H](O)[C@H]2O)c(=O)[nH]1 [Uridine]	turned purple		carbon source utilization (ten strains of E. coli): +; suitability as nitrogen source (growth, purple color) (E. coli MG1655 [2]): not suitable; activity at 30 µM (HepG2 cells; Conc. 0.03 mM): 102%; activity at 100 µM (HepG2 cells; Conc. 0.10 mM): 109%; activity at 330 µM (HepG2 cells; Conc. 0.33 mM): 99%; activity at 1000 µM (HepG2 cells; Conc. 1.00 mM): 109%; activity at 3300 µM (HepG2 cells; Conc. 3.3 mM): 106%; activity at 10000 µM (HepG2 cells; Conc. 10 mM): 94.8%; activity at 15000 µM (HepG2 cells; Conc. 15 mM): 74.1%; activity at 20000 µM (HepG2 cells; Conc. 20 mM): 31.9%
Nc1ncnc2c1ncn2[C@@H]1O[C@H](CO)[C@@H](OP(=O)(O)O)[C@H]1O [adenosine 3-monophosphate]	turned weakly purple	positive	
Nc1ncnc2c1ncn2[C@@H]1O[C@H](COP(=O)(O)O)[C@@H](O)[C@H]1O [adenosine 5′-monophosphate]	turned weakly purple	not suitable	
Nc1ncnc2c1ncn2[C@@H]1O[C@H](CO)[C@@H](O)[C@H]1OP(=O)(O)O [adenosine-2′-monophosphate]	turned weakly purple	positive	
C[C@H](N)C(=O)N[C@@H](CCC(N)=O)C(=O)O [ala-gln] (H-Ala-Gln-OH)			response of HL-60 cells to peptides (HL-60 cells): positive response; suitability as nitrogen source (growth, purple color) (E. coli MG1655 [2]): positive
O=[N+]([O-])c1ncc[nH]1 [azomycin]			change of sensitivity to the panel compound (E. coli (MG1655)): increased sensitivity
N[C@@H](C(=O)N[C@@H]1C(=O)N2C(C(=O)O)=C(Cl)CS[C@H]12)c1ccccc1 [cefaclor]			change of sensitivity to the panel compound (E. coli (MG1655); [4]): increased sensitivity
Cc1nnc(SCC2=C(C(=O)O)N3C(=O)[C@@H](NC(=O)Cn4cnnn4)[C@H]3SC2)s1 [cefazolin]			change of sensitivity to the panel compound (E. coli (MG1655); in the presence of 10 μg/ml vancomycin): increased sensitivity; change of sensitivity to the panel compound (E. coli (MG1655); [4]): increased sensitivity
N[C@@H](CS)C(=O)NCC(=O)O [cys-gly]			response of HL-60 cells to peptides (HL-60 cells): positive response; suitability as sulfur source (growth, purple color) (E. coli MG1655 [3]): positive
Nc1ccn([C@@H]2O[C@H](CO)[C@@H](O)[C@H]2OP(=O)(O)O)c(=O)n1 [cytidine 2′-monophosphate]	turned purple	not suitable	
Nc1ccn([C@@H]2O[C@H](CO)[C@@H](OP(=O)(O)O)[C@H]2O)c(=O)n1 [cytidine 3′-monophosphate]	turned purple	positive	
Nc1ccn([C@@H]2O[C@H](COP(=O)(O)O)[C@@H](O)[C@H]2O)c(=O)n1 [cytidine 5′-monophosphate]	turned purple	positive	
Nc1ccn([C@@H]2O[C@H](CO)[C@@H](O)[C@H]2O)c(=O)n1 [cytidine]	turned purple		
Nc1cc[nH]c(=O)n1 [cytosine]	turned purple		suitability as nitrogen source (growth, purple color) (E. coli MG1655 [2]): not suitable
Nc1nc2nc[nH]c2c(=O)[nH]1 [guanine]	turned weakly purple		
Nc1nc2c(ncn2[C@@H]2O[C@H](CO)[C@@H](O)[C@H]2OP(=O)(O)O)c(=O)[nH]1 [guanosine 2′-monophosphate]	turned weakly purple	positive	
Nc1nc2c(ncn2[C@@H]2O[C@H](COP(=O)(O)O)[C@@H](O)[C@H]2O)c(=O)[nH]1 [guanosine 5′-monophosphate]	turned weakly purple	positive	
C[C@@H](O)[C@H](N)C(=O)N[C@@H](CO)C(=O)O [thr-ser] (H-Thr-Ser-OH)			response of HL-60 cells to peptides (HL-60 cells): positive response
C[C@H](NC(=O)[C@@H](N)Cc1ccc(O)cc1)C(=O)O [tyr-ala]			response of HL-60 cells to peptides (HL-60 cells): positive response
N[C@@H](Cc1ccc(O)cc1)C(=O)N[C@@H](Cc1ccccc1)C(=O)O [tyr-phe] (H-Tyr-Phe-OH)			response of HL-60 cells to peptides (HL-60 cells): positive response
CC(C)[C@H](NC(=O)[C@@H](N)Cc1ccc(O)cc1)C(=O)O [tyr-val] (H-Tyr-Val-OH)			response of HL-60 cells to peptides (HL-60 cells): positive response
O=c1cc[nH]c(=O)[nH]1 [uracil]	turned purple		suitability as nitrogen source (growth, purple color) (E. coli MG1655 [2]): not suitable
O=c1ccn([C@@H]2O[C@H](CO)[C@@H](OP(=O)(O)O)[C@H]2O)c(=O)[nH]1 [uridine 3′-monophosphate]	turned purple	positive	
O=c1ccn([C@@H]2O[C@H](COP(=O)(O)O)[C@@H](O)[C@H]2O)c(=O)[nH]1 [uridine 5′-monophosphate]	turned purple	positive	
CC(C)[C@H](N)C(=O)N[C@@H](CCC(N)=O)C(=O)O [val-gln] (H-Val-Gln-OH)			response of HL-60 cells to peptides (HL-60 cells): positive response
CC(C)[C@H](N)C(=O)N[C@@H](Cc1ccc(O)cc1)C(=O)N[C@H](C(=O)O)C(C)C [val-tyr-val] (H-Val-Tyr-Val-OH)			response of HL-60 cells to peptides (HL-60 cells): positive response
